According to DBAASP:
In brackets after ≈: the same amount, converted by molar mass. Several values for one entry are separate records, joined by “and”; a condition that tells them apart may be missing. Equal entries are not always repeated.

What was measured:
Assay in all cases: ≥ marks a high value that may be exact or a test limit, other limits are often not marked, values filed in µg/mL are converted to µM
[1] = system: Acinetobacter baumannii I NM8
[2] = system: Candida albicans ATCC 90028
[3] = system: Escherichia coli ATCC 25726
[4] = system: Klebsiella pneumoniae ATCC 700603
[5] = system: Staphylococcus aureus ATCC 25923
[6] = system: Bacillus megaterium ATCC 17749
[7] = system: Candida sp.
[8] = system: Escherichia coli 363 ATCC 11775
[9] = system: Fusarium oxysporum
[10] = system: Micrococcus luteus ATCC 4698
[11] = system: Salmonella enterica subsp. enterica serovar Newport
[12] = system: Staphylococcus aureus ATCC 25293
[13] = system: Staphylococcus epidermidis ATCC 12228
[14] = system: Vibrio alginolyticus ATCC 17749
[15] = system: Vibrio metschnikovii NCTC 8483
[16] = system: Bacillus subtilis ATCC 1768
[17] = system: Bacillus subtilis ATCC 6633
[18] = system: Candida albicans ATCC 36232
[19] = system: Corynebacterium diphtheriae ATCC 8024
[20] = system: Corynebacterium diphtheriae ATCC 8032
[21] = system: Escherichia coli ATCC 2592
[22] = system: Micrococcus luteus ATCC 10240
[23] = system: Micrococcus luteus ATCC 9341
[24] = system: Proteus vulgaris ATCC 6380
[25] = system: Pseudomonas aeruginosa ATCC 9027
[26] = system: Shigella flexneri ATCC 203
[27] = system: Staphylococcus aureus ATCC 6538
[28] = system: Staphylococcus aureus SG501
[29] = system: Staphylococcus aureus
[30] = system: Streptococcus pyogenes 308A
[31] = system: Streptococcus pyogenes 77A
[32] = system: Aspergillus flavus ATCC 46283
[33] = system: Aspergillus fumigatus ATCC 16424
[34] = system: Aspergillus niger ATCC 20611
[35] = system: Campylobacter jejuni ATCC 43051
[36] = system: Campylobacter jejuni
[37] = system: Candida albicans ATCC 32354
[38] = system: Escherichia coli ATCC 15224
[39] = system: Escherichia coli
[40] = system: Helicobacter pylori ATCC 43526
[41] = system: Pseudomonas aeruginosa ATCC 90271
[42] = system: Pseudomonas aeruginosa
[43] = system: Saccharomyces cerevisiae ATCC 24860
[44] = system: Salmonella enterica subsp. enterica serovar Typhimurium ATCC 13311
[45] = system: Salmonella typhimurium
[46] = system: Shigella flexneri ATCC 25875
[47] = system: Shigella flexneri
[48] = system: Shigella sonnei ATCC 25931
[49] = system: Shigella sonnei
[50] = system: Staphylococcus aureus ATCC 29213
[51] = system: Streptococcus pyogenes ATCC 10389
[52] = system: Streptococcus pyogenes
[53] = system: Trichoderma viride ATCC 36316

`CC[C@H](C)[C@H](NC(=O)[C@@H](NC(=O)[C@H](CO)NC(=O)[C@H](C)NC(=O)[C@H](CC(C)C)NC(=O)CN)[C@@H](C)O)C(=O)NCC(=O)N[C@@H](CO)C(=O)N[C@@H](CC(C)C)C(=O)N[C@@H](CC(C)C)C(=O)NCC(=O)N[C@@H](CCCCN)C(=O)N[C@@H](Cc1ccccc1)C(=O)N[C@@H](C)C(=O)N[C@@H](CCCCN)C(=O)NCC(=O)NCC(=O)N[C@@H](C)C(=O)N[C@@H](CCC(N)=O)C(=O)N[C@@H](C)C(=O)N[C@@H](Cc1ccccc1)C(=O)N[C@@H](CC(C)C)C(=O)N[C@@H](CCC(N)=O)C(=O)N1CCC[C@H]1C(=O)N[C@@H](CCCCN)C(=O)O` [GLASTIGSLLGKFAKGGAQAFLQPK] was tested, and the MIC [1] was 25 µM (≈ 61.5 µg/mL), the MIC [2] was ≥ 50 µM and the MIC [3] was ≥ 160 µM. The MIC [4] was > 50 µM and the MIC [5] was 80 µM and 100 µM.
With `CC(C)C[C@@H]1NC(=O)[C@H](CCCN=C(N)N)NC(=O)[C@H](Cc2cnc[nH]2)NC(=O)[C@H](Cc2c[nH]c3ccccc23)NC(=O)CNC(=O)CNC(=O)[C@@H](NC(=O)[C@H](Cc2ccc(O)cc2)NC(=O)CNC(=O)CNC(=O)[C@@H](N)CO)CSSC[C@@H](C(=O)N[C@H](C(=O)N[C@@H](CO)C(=O)N[C@@H](Cc2ccc(O)cc2)C(=O)N[C@@H](CCCN=C(N)N)C(=O)N[C@@H](CO)C(=O)NCC(=O)O)[C@@H](C)O)NC(=O)[C@H](CCCN=C(N)N)NC1=O` [SGGYCGGWHRLRCTSYRSG] the MIC [6] was ≥ 34 µM, the MIC [7] was 8 µM (≈ 16.8 µg/mL) and the MIC [8] was ≥ 62 µM. The MIC [9] was 13 µM (≈ 27.3 µg/mL), the MIC [10] was 16 µM (≈ 33.6 µg/mL) and the MIC [11] was ≥ 75 µM. The MIC [12] was 17 µM (≈ 35.7 µg/mL), the MIC [13] was 41 µM (≈ 86.2 µg/mL) and the MIC [14] was ≥ 75 µM. For the same compound, the MIC [15] was ≥ 75 µM.
Work on `CC[C@H](C)[C@@H]1NC(=O)[C@H](CC(=O)O)NC(=O)[C@@H](NC(=O)[C@@H](NC(=O)[C@@H](N)C(C)C)[C@@H](C)O)CSSC[C@@H]2NC(=O)[C@H](Cc3ccc(O)cc3)NC(=O)CNC(=O)CNC(=O)[C@H](CO)NC(=O)[C@H](CCCN=C(N)N)NC(=O)CNC(=O)[C@H](CCCN=C(N)N)NC(=O)[C@H](Cc3ccccc3)NC(=O)[C@H](CC(C)C)NC(=O)[C@@H]3CSSC[C@@H](C(=O)N[C@@H](CCCN=C(N)N)C(=O)O)NC(=O)[C@H](C(C)C)NC(=O)[C@H](CSSC[C@H](NC(=O)[C@H](C)NC(=O)[C@H](C)NC(=O)[C@H](CC(=O)O)NC(=O)[C@H](CC(N)=O)NC(=O)[C@H](CC(C)C)NC(=O)[C@H](CCCCN)NC(=O)[C@H](C(C)C)NC(=O)CNC(=O)[C@H](CCCCN)NC(=O)[C@H](C)NC(=O)[C@H](CCC(=O)O)NC(=O)[C@H](C(C)C)NC(=O)[C@H](CO)NC(=O)[C@H](CC(C)C)NC1=O)C(=O)N[C@@H](C)C(=O)N[C@@H](C)C(=O)N[C@@H](Cc1cnc[nH]1)C(=O)N3)NC(=O)[C@H](C(C)C)NC(=O)[C@H](CCCN=C(N)N)NC(=O)[C@H](CCCCN)NC(=O)CNC(=O)[C@H](CC(N)=O)NC2=O` [VTCDILSVEAKGVKLNDAACAAHCLFRGRSGGYCNGKRVCVCR] yielded an MIC [16] of 0.44 µM, an MIC [17] of 0.22 µM and an MIC [18] of 22 µM. For the same compound, the MIC [19] was 1.76 µM, the MIC [20] was 1.32 µM and the MIC [21] was 22 µM. The MIC [22] was 1.1 µM, the MIC [23] was 0.686 µM and 1.76 µM and the MIC [24] was 6.6 µM. For the same compound, the MIC [25] was > 22 µM, the MIC [26] was 6.6 µM and the MIC [27] was 1.38 µM. For the same compound, the MIC [28] was 0.176 µM, the MIC [29] was 5.5 µM and the MIC [13] was 1.76 µM. It also gave an MIC [30] of 0.352 µM and an MIC [31] of 0.22 µM.
In the case of `CC[C@H](C)[C@H](NC(=O)CNC(=O)[C@H](CCC(N)=O)NC(=O)CNC(=O)[C@@H](NC(=O)[C@H](CCCCN)NC(=O)[C@H](CCC(=O)O)NC(=O)[C@@H](NC(=O)[C@H](CCCCN)NC(=O)[C@H](CCCCN)NC(=O)[C@H](Cc1ccccc1)NC(=O)[C@H](CC(C)C)NC(=O)[C@H](CCCCN)NC(=O)[C@H](Cc1c[nH]c2ccccc12)NC(=O)[C@@H](N)CCCCN)[C@@H](C)CC)C(C)C)C(=O)NCC(=O)N[C@@H](C)C(=O)N[C@H](C(=O)N[C@@H](CC(C)C)C(=O)N[C@@H](CCCCN)C(=O)N[C@H](C(=O)N[C@@H](CC(C)C)C(=O)N[C@H](C(=O)N[C@H](C(=O)NCC(=O)N[C@@H](CC(C)C)C(N)=O)[C@@H](C)O)[C@@H](C)O)C(C)C)C(C)C` [KWKLFKKIEKVGQGIGAVLKVLTTGL], the MIC [32] is reported as 3.71 µM (≈ 10.6 µg/mL), the MIC [33] is reported as 3.68 µM (≈ 10.5 µg/mL) and the MIC [34] is reported as 3.15 µM (≈ 9 µg/mL). For the same compound, the MIC [35] was 1.4 µM (≈ 4 µg/mL), the MIC [36] was 1.54 µM (≈ 4.4 µg/mL) and the MIC [37] was 3.96 µM (≈ 11.3 µg/mL). For the same compound, the MIC [38] was 1.3 µM (≈ 3.7 µg/mL), the MIC [39] was 1.26 µM (≈ 3.6 µg/mL) and the MIC [40] was 1.61 µM (≈ 4.6 µg/mL). For the same compound, the MIC [41] was 1.54 µM (≈ 4.4 µg/mL), the MIC [42] was 1.33 µM (≈ 3.8 µg/mL) and the MIC [43] was 4.97 µM (≈ 14.2 µg/mL). It also gave an MIC [44] of 1.72 µM (≈ 4.9 µg/mL), an MIC [45] of 1.54 µM (≈ 4.4 µg/mL) and an MIC [46] of 1.47 µM (≈ 4.2 µg/mL). The MIC [47] was 1.65 µM (≈ 4.7 µg/mL), the MIC [48] was 1.58 µM (≈ 4.5 µg/mL) and the MIC [49] was 1.65 µM (≈ 4.7 µg/mL). The MIC [50] was 2.56 µM (≈ 7.3 µg/mL), the MIC [29] was 3.01 µM (≈ 8.6 µg/mL) and the MIC [51] was 2.63 µM (≈ 7.5 µg/mL). For the same compound, the MIC [52] was 2.7 µM (≈ 7.7 µg/mL) and the MIC [53] was 4.62 µM (≈ 13.2 µg/mL).
